Reference: the supplement of paper PMC10307832

Legend:
Test in all cases: relative viability (nuclei count vs DMSO), 5 days (fraction); higher = more cells survive
RO-3306 + Lapatinib = compound: C1=CC2=C(C=CC(=C2)C=C3C(=O)NC(=NCC4=CC=CS4)S3)N=C1 [RO-3306] + CS(=O)(=O)CCNCc1ccc(-c2ccc3ncnc(Nc4ccc(OCc5cccc(F)c5)c(Cl)c4)c3c2)o1 [Lapatinib] (partner 2 µM)
Outline: (§1)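 Each reported value is a median over duplicate plates. It expresses relative viability: treated-well nuclei count divided by vehicle-well nuclei count. Lung cancer cell lines in 1536-well plates were dosed by pin tool a day after seeding, alone with one drug or with a fixed anchor-drug dose plus five library-drug doses (not always all listed) in √10 steps, and nuclei were counted after 5 days.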

RO-3306 + Luminespib = compound: C1=CC2=C(C=CC(=C2)C=C3C(=O)NC(=NCC4=CC=CS4)S3)N=C1 [RO-3306] + CCNC(=O)c1noc(-c2cc(C(C)C)c(O)cc2O)c1-c1ccc(CN2CCOCC2)cc1 [Luminespib] (partner 0.01 µM)
Outline: as §1

[1] = compound: O=S(=O)(c1ccccc1)N(CC(F)(F)F)c1ccc(C(O)(C(F)(F)F)C(F)(F)F)cc1 + Cc1nc(NC(=O)N2CCC[C@H]2C(N)=O)sc1-c1ccnc(C(C)(C)C(F)(F)F)c1 [Alpelisib] (partner 2 µM)
Outline: as §1

RO-3306 + Foretinib = compound: C1=CC2=C(C=CC(=C2)C=C3C(=O)NC(=NCC4=CC=CS4)S3)N=C1 [RO-3306] + COc1cc2c(Oc3ccc(NC(=O)C4(C(=O)Nc5ccc(F)cc5)CC4)cc3F)ccnc2cc1OCCCN1CCOCC1 [Foretinib] (partner 0.25 µM)
Outline: as §1

Cell Line	relative viability (RO-3306 + Lapatinib; first compound 0.01 µM)	relative viability (RO-3306 + Lapatinib; first compound 0.03162 µM)	relative viability (RO-3306 + Lapatinib; first compound 0.1 µM)	relative viability (RO-3306 + Lapatinib; first compound 0.3162 µM)	relative viability (RO-3306 + Lapatinib; first compound 1 µM)	relative viability (RO-3306 + Luminespib; first compound 0.01 µM)	relative viability (RO-3306 + Luminespib; first compound 0.03162 µM)	relative viability (RO-3306 + Luminespib; first compound 0.1 µM)	relative viability (RO-3306 + Luminespib; first compound 0.3162 µM)	relative viability (RO-3306 + Luminespib; first compound 1 µM)	relative viability ([1]; first compound 0.8 µM)	relative viability ([1]; first compound 2.53 µM)	relative viability ([1]; first compound 8 µM)	relative viability (RO-3306 + Foretinib; first compound 0.01 µM)	relative viability (RO-3306 + Foretinib; first compound 0.03162 µM)	relative viability (RO-3306 + Foretinib; first compound 0.1 µM)	relative viability (RO-3306 + Foretinib; first compound 0.3162 µM)	relative viability (RO-3306 + Foretinib; first compound 1 µM)
LOU-NH91	0.692	0.739	0.811	0.771	0.677	0.348	0.298	0.312	0.28	0.291	0.654	0.721	0.74	0.879	0.94	0.951	0.87	0.976
LU99A	1.2	0.971	0.915	0.789	0.914	0.203	0.245	0.233	0.25	0.275	0.606	0.498	0.472	0.869	0.798	0.844	0.835	0.733
LXF-289	0.918	0.919	0.947	0.893	0.787	0.766	0.654	0.593	0.603	0.577	1.03	0.912	0.789	0.985	0.956	0.945	0.996	0.958
NCI-H23	1	1.02	1.05	1.12	0.748	0.237	–	–	0.216	0.204	0.905	0.818	0.618	0.972	0.728	0.833	1.08	0.978
NCI-H322M	0.576	0.595	0.575	0.586	0.561	0.801	0.708	0.907	0.943	0.835	0.794	0.792	0.73	1.05	0.815	0.896	0.962	1.02
NCI-H358	0.5	0.431	0.39	0.495	0.425	0.408	0.292	0.376	0.316	0.229	0.647	0.729	0.695	0.541	0.57	0.623	0.786	0.493
NCI-H460	1.64	–	0.958	1.18	1.25	0.033	0.029	0.0336	0.0289	0.0305	0.544	0.512	0.512	1	0.894	1.08	1.08	1.08
NCI-H520	1.01	0.638	0.806	0.734	0.754	0.252	0.212	0.249	0.218	0.23	1	0.915	1.28	0.843	0.663	0.854	0.694	0.839
NCI-H596	0.892	0.83	1.08	1.07	1.17	1.06	0.853	1.13	0.84	0.974	0.423	0.419	0.421	0.716	0.797	0.818	0.872	0.77
NCI-H647	1.45	0.881	0.974	1.32	0.783	0.234	0.121	0.122	0.174	0.322	1.25	1.01	1.35	1.29	1.12	1.12	1.27	1.24
NCI-H650	0.867	0.728	0.774	1.06	1.01	0.716	0.755	0.813	0.798	0.789	1.13	1.03	1	0.989	0.94	1.01	1.07	1.02
NCI-H661	0.412	0.469	0.532	0.536	0.605	0.869	1.02	0.934	0.953	0.936	0.752	0.681	1.02	1.01	1.07	0.981	0.985	0.999
NCI-H727	0.869	0.647	0.789	0.845	0.972	0.244	–	0.453	0.906	0.3	0.549	0.465	0.489	1.03	0.94	0.74	1.21	1.01
NCI-H838	1.02	0.6	0.951	1.08	0.902	0.523	0.274	0.24	0.316	0.221	1.12	0.923	1.07	1.13	0.966	1.06	1.16	1.06
NCI-H1355	1.15	0.926	0.973	1.04	0.886	0.888	–	0.68	0.84	0.68	0.861	0.727	0.715	1.04	–	1.05	1.02	0.942
